Source: patent publication US5866569A, “Naphthalenedione nitric oxide synthase (NOS) inhibitors” (Ontogen Corporation, priority 1997, dated 1999)

Assays:
[1] = molecular target: T1, iNOS (Mus musculus, UniProt P29477); test: Nitric oxide synthase activity assay (Griess reagent), iNOS partially purified from interferon-γ/LPS stimulated RAW 264.7 cells; type: biochemical; conditions: for IC50: 90 minutes at 37° C
T1 construct: iNOS was isolated from interferon-γ and lipopolysaacharide(LPS) stimulated mouse macrophage cells (RAW 264.7 cells); endogenous in cells; host or cells: RAW 264.7 mouse macrophage cells, induced overnight with interferon-γ and LPS; lysate partially purified on ADP sepharose
Method: Thus, iNOS was isolated from interferon-γ and lipopolysaacharide(LPS) stimulated mouse macrophage cells (RAW 264.7 cells). RAW cells were incubated overnight with interferon-γ and LPS. A lysate fraction was prepared by lysing the harvested cells in liquid nitrogen and thawing by incubation in a 37° C. water bath and run over an ADP sepharose column for partial purification.
(§1) Nitric Oxide Synthase activity was assayed by adding 10 μL of crude lysate 10 μL of substrate and 10 μL of a selected Compound as depicted in Formula I in DMSO to 70 μL of assay buffer in a 96-well microtiter plate. The wells were mixed gently and incubated for 90 minutes at 37° C. The reaction was stopped by adding 2 units of L-lactic dehydrogenase (5 μL of stock solution) and 5 μmole of sodium pyruvate (10 μL of stock solution). The solution was incubated for an additional 15 minutes at 37° C. 100 μL of Griess reagent was added and read absorbance at 560 nm.

[2] = molecular target: nNOS (Homo sapiens, UniProt P29475); test: Nitric oxide synthase activity assay, nNOS; type: biochemical
nNOS, sequence (P29475 whole entry): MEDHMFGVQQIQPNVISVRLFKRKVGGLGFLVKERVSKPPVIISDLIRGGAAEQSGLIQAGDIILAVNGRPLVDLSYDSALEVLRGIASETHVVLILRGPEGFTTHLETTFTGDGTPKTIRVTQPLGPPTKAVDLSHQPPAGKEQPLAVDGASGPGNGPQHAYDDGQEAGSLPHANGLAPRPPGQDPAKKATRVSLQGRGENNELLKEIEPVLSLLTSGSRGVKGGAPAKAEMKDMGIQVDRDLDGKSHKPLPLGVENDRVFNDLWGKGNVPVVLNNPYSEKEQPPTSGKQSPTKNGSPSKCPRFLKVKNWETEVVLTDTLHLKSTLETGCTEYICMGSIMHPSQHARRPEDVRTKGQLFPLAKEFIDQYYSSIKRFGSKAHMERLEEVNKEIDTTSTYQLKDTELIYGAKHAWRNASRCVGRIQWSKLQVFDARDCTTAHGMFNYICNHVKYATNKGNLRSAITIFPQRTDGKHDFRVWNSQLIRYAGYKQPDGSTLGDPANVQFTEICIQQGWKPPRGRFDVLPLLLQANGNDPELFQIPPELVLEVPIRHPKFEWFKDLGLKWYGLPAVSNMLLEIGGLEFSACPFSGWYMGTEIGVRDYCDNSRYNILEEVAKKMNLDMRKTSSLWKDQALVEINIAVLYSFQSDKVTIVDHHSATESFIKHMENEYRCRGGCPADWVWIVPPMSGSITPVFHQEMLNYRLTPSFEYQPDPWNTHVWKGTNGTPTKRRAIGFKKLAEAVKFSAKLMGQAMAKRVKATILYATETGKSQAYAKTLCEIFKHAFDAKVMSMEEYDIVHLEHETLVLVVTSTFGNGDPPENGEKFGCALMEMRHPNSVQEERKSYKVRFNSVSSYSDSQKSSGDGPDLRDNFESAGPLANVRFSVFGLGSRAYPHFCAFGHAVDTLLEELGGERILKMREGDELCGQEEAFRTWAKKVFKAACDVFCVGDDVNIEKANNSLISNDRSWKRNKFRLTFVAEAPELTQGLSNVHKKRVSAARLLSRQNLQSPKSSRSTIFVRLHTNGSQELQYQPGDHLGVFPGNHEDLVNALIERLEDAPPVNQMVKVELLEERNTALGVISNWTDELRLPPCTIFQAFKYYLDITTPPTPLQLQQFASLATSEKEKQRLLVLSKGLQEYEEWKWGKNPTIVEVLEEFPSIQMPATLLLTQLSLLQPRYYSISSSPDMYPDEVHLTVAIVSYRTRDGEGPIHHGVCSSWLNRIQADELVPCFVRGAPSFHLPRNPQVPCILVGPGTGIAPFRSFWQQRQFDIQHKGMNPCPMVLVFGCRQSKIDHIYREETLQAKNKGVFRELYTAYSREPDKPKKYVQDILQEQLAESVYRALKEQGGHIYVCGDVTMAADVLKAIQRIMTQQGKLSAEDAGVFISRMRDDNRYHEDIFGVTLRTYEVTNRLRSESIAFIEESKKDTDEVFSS
Method: as §1

| SMILES | IC50 [1] [µM] | inhibition at 10 µM ([1]; @ 10 μM, read-out: Percentage Inhibition iNOS) [%] | IC50 [2] [µM] |
| --- | --- | --- | --- |
| O=C1C=C(N2CCCc3ccccc32)c2ccccc2C1=O [Example 8] | 13 | – | – |
| O=C1C=C(n2cncn2)c2ccccc2C1=O [Example 13] | 7.8 | – | – |
| COC(=O)[C@@H]1CCCN1C1=CC(=O)C(=O)c2ccccc21 [Example 10] | 44 | – | – |
| O=C1C=C(N2CCNCC2)c2cc(O)ccc2C1=O [Example 11] | – | 34 | – |
| O=C1C=C(N2CCN(C(=O)NCc3ccccc3)CC2)c2ccccc2C1=O [Example 19] | 2.2 | – | 2.1 |
| N=C(N)N1CCN(C2=CC(=O)C(=O)c3ccccc32)CC1 [Example 20] | 0.67 | – | 0.57 |
| COC(=O)[C@H](CCC(=O)N1CCN(C2=CC(=O)C(=O)c3ccccc32)CC1)NC(=O)OCC1c2ccccc2-c2ccccc21 [Example 21] | 15.6 | – | 1.9 |
| O=C1C=C(N2CCc3ccccc32)c2ccccc2C1=O [Example 9] | 17 | – | – |
| CCN(C1=CC(=O)C(=O)c2ccccc21)c1ccccc1 [Example 2] | 16 | – | – |
| CC1CCCCN1CCCNC1=CC(=O)C(=O)c2ccccc21 (stereo not shown) [Example 5] | 12 | – | – |
| O=C1C=C(NCCN2CCOCC2)c2ccccc2C1=O [Example 4] | 45 | – | – |
| CCN1CCN(C2=CC(=O)C(=O)c3ccccc32)CC1 [Example 7] | 8 | – | – |
| O=C1C=C(c2ccc[nH]2)c2ccccc2C1=O [Example 14] | 7.4 | – | – |
| O=C1C=C(NCCCn2ccnc2)c2ccccc2C1=O [Example 3] | 41 | – | – |
| CN1CCN(C2=CC(=O)C(=O)c3ccccc32)CC1 [Example 6] | 5.4 | – | 2 |
| O=C1C(=O)c2c(nc3ccccn23)-c2ccccc21 [Example 24] | 2.3 | – | 0.27 |
| NCCNC1=CC(=O)C(=O)c2ccccc21 [Example 16] | 11.2 | – | 3.2 |
| CC(=O)N1CCN(C2=CC(=O)C(=O)c3ccccc32)CC1 [Example 17] | 5.4 | – | – |
| O=C1C=C(Nc2ccccc2)c2ccccc2C1=O [Example 1] | 27 | – | – |
| O=C1C=C(N2CCNCC2)c2ccccc2C1=O [Example 12] | 9.9 | – | 2.1 |
| O=C1C=C(N2CCN(C(=O)c3ccc([N+](=O)[O-])cc3)CC2)c2ccccc2C1=O [Example 18] | 6.2 | – | 1.2 |
| CC(C)(C)OC(=O)NCCNC1=CC(=O)C(=O)c2ccccc21 [Example 15] | 3.8 | – | 1.1 |
